Results on 14 compounds are retold here after patent US20230286983A1 (4E Therapeutics, Inc., priority 2020, published 2023).

A short description of data set [1]: Liver microsome stability, human. Type of data set: in vitro ADME. To be noted: liver microsomes; for half-life: read-out: Human liver microsomes t1/2.
Data set [2] in a line: Liver microsome stability, rat. It counts as in vitro ADME. To be noted: Rat liver microsomes (#); for microsomal CLint: read-out: CLint rodent; for half-life: read-out: Rodent liver microsomes t1/2.
Data set [3] relates to eIF4E phosphorylation at Serine 209 in the human embryonic kidney (HEK) 293 cell line. Nature of the data set: eIF4E phosphorylation in HEK 293 cells (fluorescent plate reader). Type of data set: cell-based. The conditions noted are these: eIF4E phosphorylation at Serine 209, 2 hours exposure. On the procedure:
The ability of MNK inhibitors described herein to inhibit eIF4E phosphorylation at Serine 209 in the human embryonic kidney (HEK) 293 cell line was tested by exposing the cells to compound for 2 hours and then measuring eIF4E phosphorylation with a phosphorylation-specific antibody in a fluorescent plate reader. These experiments were done with HEK-293 cells plated on 96 well plates. Following treatment, cells were fixed with ice cold methanol for 10 min and then washed in 1× phosphate buffered saline (PBS) and the permeabilized with 0.02% Triton X-100 in 10% normal goat serum made up in PBS. Primary antibody was applied overnight at a concentration dilution of 1:2000 (p-eIF4E antibody from Cell Signaling ab76256). Following washing, cells were then exposed to secondary antibody conjugated to alexa-fluor 488 and then visualized on a Syngergy HTX plate reader. Fluorescence for p-eIF4E was measured and normalized to total DAPI fluorescence to determine the percentage of eIF4E phosphorylation in each well. Data were plotted in Graphpad Prism V8 to determine concentration-response effects and calculate IC50 values.

The subject of another data set is P-gp (human MDR1, ABCB1). Nature of the data set: MDCK-MDR1 permeability (blood brain barrier permeability). Type of data set: in vitro ADME, Canine. The conditions noted are these: dog; for efflux ratio at 5 μM: MDCK-MDR1, 5 μM, read-out: Efflux ratio (ratio B-A/A-B); for Papp A→B at 5 μM: MDCK-MDR1, Apical to basolateral transport; for Papp A→B at 5 μM / Papp B→A at 5 μM: average of two experiments; for Papp B→A at 5 μM: MDCK-MDR1, Basolateral to apical transport.

A further data set deals with MNK1 (Homo sapiens, UniProt Q9BUB5). Nature of the data set: MNK1 substrate phosphorylation assay. To be noted: recombinant human kinase. It counts as biochemical.
Chain of MNK1 (Q9BUB5 whole entry): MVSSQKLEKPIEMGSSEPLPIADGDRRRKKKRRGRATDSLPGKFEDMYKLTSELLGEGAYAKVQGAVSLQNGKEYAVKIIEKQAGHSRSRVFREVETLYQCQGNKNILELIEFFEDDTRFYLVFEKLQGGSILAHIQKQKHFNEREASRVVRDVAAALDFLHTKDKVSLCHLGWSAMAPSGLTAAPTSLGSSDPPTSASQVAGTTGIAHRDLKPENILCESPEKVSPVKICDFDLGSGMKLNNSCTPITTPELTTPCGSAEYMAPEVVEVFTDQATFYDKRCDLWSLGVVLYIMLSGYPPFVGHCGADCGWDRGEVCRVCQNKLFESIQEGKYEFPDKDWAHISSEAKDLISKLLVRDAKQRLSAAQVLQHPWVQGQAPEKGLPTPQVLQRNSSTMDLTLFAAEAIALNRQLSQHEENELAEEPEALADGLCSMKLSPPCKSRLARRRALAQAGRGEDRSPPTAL
The target in the next data set is MNK2 (Homo sapiens, UniProt Q9HBH9). As to the kind of experiment: MNK2 substrate phosphorylation assay. It counts as biochemical. To be noted: recombinant human kinase.
Chain of MNK2 (Q9HBH9 whole entry): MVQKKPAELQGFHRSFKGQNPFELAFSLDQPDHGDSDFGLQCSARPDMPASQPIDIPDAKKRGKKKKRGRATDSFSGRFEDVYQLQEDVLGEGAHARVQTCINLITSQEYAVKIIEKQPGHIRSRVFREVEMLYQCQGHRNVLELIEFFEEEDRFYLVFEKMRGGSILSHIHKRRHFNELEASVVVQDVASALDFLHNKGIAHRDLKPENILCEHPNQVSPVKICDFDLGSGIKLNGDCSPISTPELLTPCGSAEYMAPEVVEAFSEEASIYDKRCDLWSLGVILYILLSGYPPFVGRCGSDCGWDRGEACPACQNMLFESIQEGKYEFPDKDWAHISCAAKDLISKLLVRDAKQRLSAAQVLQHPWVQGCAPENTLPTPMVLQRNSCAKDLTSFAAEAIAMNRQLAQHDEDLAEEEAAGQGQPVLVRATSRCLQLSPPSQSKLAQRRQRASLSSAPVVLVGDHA
A short description of data set [4]: Liver microsome stability, mouse. Type of data set: in vitro ADME. The conditions noted are these: for half-life: mouse, liver microsomes.
A further data set deals with MDCK-MDR1. Nature of the data set: MDCK-MDR1 permeability (blood brain barrier permeability). It counts as in vitro ADME, Canine. To be noted: 5 μM; for Papp A-B: Apical to basolateral transport; for Papp A-B / Papp B-A: average of two experiments; for Papp B-A: Basolateral to apical transport.
The mark [5] stands for this setting: mouse liver microsomes, Table 11b, read-out: T1/2.
The mark [6] stands for this setting: mouse liver microsomes, Table 11b.

SMILES strings stand for the structures.

The IC50 is the concentration at which inhibition is half-maximal. Broadly, the Papp A→B is the apparent permeability from the apical to the basolateral side of a cell layer. Low values mean poor permeation, high ones ready permeation. What is called Papp B→A is the apparent permeability from the basolateral to the apical side of a cell layer. For the compound `Cc1cc(Nc2cc(NCCN3CCOCC3)ncn2)c(=O)n2c1C(=O)NC21CCCCC1` [Compound 4ET-02-005], the microsomal CLint was 5.64 µL/min/mg in data set [1] and 13.6 µL/min/mg in data set [2]. In addition, the half-life is 4.1 h in data set [1] and 1.7 h in data set [2]. The IC50 amounted to 22.5 nM in data set [3] (Homo sapiens, HEK293, 2 h); 45.1 nM on MNK1; 10.4 nM on MNK2. In addition, the efflux ratio at 5 μM in the data set with P-gp (human MDR1, ABCB1) turned out to be 9.4. Moreover, the Papp A→B at 5 μM with P-gp (human MDR1, ABCB1) was determined as 4.5 ×10⁻⁶ cm/s. For the same compound, the Papp B→A at 5 μM in the data set on P-gp (human MDR1, ABCB1) was 42.2 ×10⁻⁶ cm/s.
For `Cc1cc(Nc2cc(N)ncn2)c(=O)n2c1C(=O)NC21C[C@H]2COC[C@H]2C1` (single isomer, unassigned) [Compound 4ET-01-014A, 6′-((6-Aminopyrimidin-4-yl)amino)-8′-methyl-3a,4,6,6a-tetrahydro-1H,2′H,3H-spiro[cyclopenta[c]furan-5,3′-imidazo[1,5-a]pyridine]-1′,5′-dione], in data set [4] (setting [5]), the half-life was determined as 4.5 h. Besides, the values for the IC50 (in data set [3]; on MNK1; on MNK2) were 28.4 nM, 26 nM and 4 nM, respectively. Further, in the data set with P-gp (human MDR1, ABCB1), the efflux ratio at 5 μM was 1.9. Moreover, in the data set on MDCK-MDR1, the “Papp A-B” value amounted to 24.9 ×10⁻⁶ cm/s. For the same compound, the “Papp B-A” value in the data set on MDCK-MDR1 came to 46.4 ×10⁻⁶ cm/s.
Take `Cc1cc(Nc2cc(N)ncn2)c(=O)n2c1C(=O)NC21C[C@H]2COC[C@H]2C1` (single isomer, unassigned) [Compound 4ET-01-014B, 6′-((6-Aminopyrimidin-4-yl)amino)-8′-methyl-3a,4,6,6a-tetrahydro-1H,2′H,3H-spiro[cyclopenta[c]furan-5,3′-imidazo[1,5-a]pyridine]-1′,5′-dione]: the T1/2 in data set [4] (setting [6]) is 7.17 h. In data set [3], this compound registered an IC50 of 67.4 nM. Also, in the data set with MDCK-MDR1, the “Efflux ratio (ratio B-A/A-B)” value is recorded as 2.4, the “Papp A-B” value turned out to be 2.4 ×10⁻⁶ cm/s and the “Papp B-A” value was 5.8 ×10⁻⁶ cm/s. In addition, the concentration for half-maximal inhibition (IC50) on MNK1 is 24.5 nM. For the same compound, the IC50 on MNK2 is 4.6 nM.
Turning to `Cc1cc(Nc2cc(NC(=O)CN3CCOCC3)ncn2)c(=O)n2c1C(=O)NC21CCCCC1` [Compound 4ET-02-007, N-(6-((8′-Methyl-1′,5′-dioxo-1′,5′-dihydro-2′H-spiro[cyclohexane-1,3′-imidazo[1,5-a]pyridin]-6′-yl)amino)pyrimidin-4-yl)-2-morpholinoacetamide], the microsomal CLint in data set [4] (Mouse liver microsomes (*), read-out: CLint rodent) is 8.7 µL/min/mg. Also, the half-life in data set [4] (Mouse liver microsomes (*), Table 11a, read-out: Rodent liver microsomes t1/2) was 2.65 h. Besides, in data set [1], the microsomal CLint stood at 6.42 µL/min/mg and the half-life was 3.6 h. Further, in the data set on P-gp (human MDR1, ABCB1), the efflux ratio at 5 μM came to 5.6, the Papp A→B at 5 μM worked out at 7.3 ×10⁻⁶ cm/s and the Papp B→A at 5 μM was 40.8 ×10⁻⁶ cm/s. The IC50 on MNK1 worked out at 89 nM. Also, on MNK2, the IC50 was 3.6 nM.
For `Cc1cc(Nc2cc(N)ncn2)c(=O)n2c1C(=O)NC21Cc2ccccc2[C@@H]1F` (single isomer, unassigned) [Compound 4ET-01-010A, 6-((6-Aminopyrimidin-4-yl)amino)-1′-fluoro-8-methyl-1′,3′-dihydro-2H-spiro[imidazo[1,5-a]pyridine-3,2′-indene]-1,5-dione], in data set [4] (setting [5]), the half-life amounted to 1.92 h. In data set [3], this compound gave an IC50 of 35.4 nM. In the data set on P-gp (human MDR1, ABCB1), the efflux ratio at 5 μM was found to be 1.5, the Papp A→B at 5 μM was determined as 42.7 ×10⁻⁶ cm/s and the Papp B→A at 5 μM stood at 63.9 ×10⁻⁶ cm/s. Besides, on MNK1, the IC50 was 73.4 nM. Besides, the IC50 at MNK2 stood at 9.24 nM.
In data set [4] (setting [6]), `Cc1cc(Nc2cc(NC(=O)C3CC3)ncn2)c(=O)n2c1C(=O)NC21C[C@H]2CNC[C@H]2C1` (single isomer, unassigned) [Compound 4ET-03-050B, N-(6-((8′-Methyl-1′,5′-dioxo-1′,2,3,3a,4,5′,6,6a-octahydro-1H,2′H-spiro[cyclopenta[c]pyrrole-5,3′-imidazo[1,5-a]pyridin]-6′-yl)amino)pyrimidin-4-yl)cyclopropanecarboxamide] yielded a T1/2 of 7.07 h. The IC50 in data set [3] stood at 150 nM; at MNK1, 40.9 nM; on MNK2 it was 6.84 nM. For the same compound, the “Efflux ratio (ratio B-A/A-B)” value in the data set with MDCK-MDR1 is recorded as 1.3. Besides, the “Papp A-B” value in the data set with MDCK-MDR1 came to 0.7 ×10⁻⁶ cm/s. Further, the “Papp B-A” value in the data set with MDCK-MDR1 came out at 0.9 ×10⁻⁶ cm/s.
As for `CC1=CC2(CCC1)NC(=O)c1c(C)cc(Nc3cc(N)ncn3)c(=O)n12` (stereo not drawn) [Compound 4ET-01-058, 6′-((6-Aminopyrimidin-4-yl)amino)-3,8′-dimethyl-2′H-spiro[cyclohexane-1,3′-imidazo[1,5-a]pyridin]-2-ene-1′,5′-dione], in data set [4] (setting [5]), the half-life was found to be 7.67 h. This compound came in with an IC50 in data set [3] (Homo sapiens, HEK293, 2 h) of 10.9 nM. Besides, in the data set with P-gp (human MDR1, ABCB1), the efflux ratio at 5 μM turned out to be 1.1, the Papp A→B at 5 μM is 57.8 ×10⁻⁶ cm/s and the Papp B→A at 5 μM amounted to 61.2 ×10⁻⁶ cm/s. Further, at MNK1, the IC50 came out at 58.4 nM. Besides, the IC50 at MNK2 worked out at 6.5 nM.
Turning to `Cc1cc(Nc2cc(NC(=O)C3CC3)ncn2)c(=O)n2c1C(=O)NC21C[C@H]2CNC[C@H]2C1` (single isomer, unassigned) [Compound 4ET-03-050A, N-(6-((8′-Methyl-1′,5′-dioxo-1′,2,3,3a,4,5′,6,6a-octahydro-1H,2′H-spiro[cyclopenta[c]pyrrole-5,3′-imidazo[1,5-a]pyridin]-6′-yl)amino)pyrimidin-4-yl)cyclopropanecarboxamide], in data set [4] (setting [6]), the T1/2 worked out at 1.2 h. For the same compound, the IC50 in data set [3] came out at 2.6 nM. For the same compound, in the data set on MDCK-MDR1, the “Efflux ratio (ratio B-A/A-B)” value was 12.4, the “Papp A-B” value was found to be 2 ×10⁻⁶ cm/s and the “Papp B-A” value worked out at 24.5 ×10⁻⁶ cm/s. At MNK1, the IC50 is 35 nM. The IC50 on MNK2 is 1.32 nM.
As for `Cc1cc(Nc2cc(NCCO)ncn2)c(=O)n2c1C(=O)NC21CCCC1` [Compound 4ET-03-007, 6′-((6-((2-Hydroxyethyl)amino)pyrimidin-4-yl)amino)-8′-methyl-2′H-spiro[cyclopentane-1,3′-imidazo[1,5-a]pyridine]-1′,5′-dione], the IC50 is 10 nM in data set [3] (Homo sapiens, HEK293, 2 h); 96.7 nM on MNK1; 4.9 nM on MNK2. For the same compound, the efflux ratio at 5 μM in the data set with P-gp (human MDR1, ABCB1) came out at 6.3. The same compound displayed a Papp A→B at 5 μM in the data set on P-gp (human MDR1, ABCB1) of 2.4 ×10⁻⁶ cm/s. Besides, the Papp B→A at 5 μM in the data set on P-gp (human MDR1, ABCB1) was determined as 15.1 ×10⁻⁶ cm/s.
With `Cc1cc(Nc2cc(NC(=O)C3CC3)ncn2)c(=O)n2c1C(=O)NC21CCCCC1` [Compound 4ET-02-003, N-(6-((8′-Methyl-1′,5′-dioxo-1′,5′-dihydro-2′H-spiro[cyclohexane-1,3′-imidazo[1,5-a]pyridin]-6′-yl)amino)pyrimidin-4-yl)cyclopropanecarboxamide], the microsomal CLint in data set [1] stood at 2.31 µL/min/mg; in data set [2], 3.75 µL/min/mg. Further, the half-life in data set [1] is 9.98 h; in data set [2], 6.17 h. The IC50 came out at 1.4 nM in data set [3] (Homo sapiens, HEK293, 2 h); 140 nM on MNK1; 4.1 nM at MNK2.
For `Cc1cc(Nc2cc(NC(=O)C3CC3)ncn2)c(=O)n2c1C(=O)NC21Cc2ccccc2[C@@H]1O` (stereo in doubt) [Compound 4ET-03-063, N-(6-((1′-Hydroxy-8-methyl-1,5-dioxo-1,1′,3′,5-tetrahydro-2H-spiro[imidazo[1,5-a]pyridine-3,2′-inden]-6-yl)amino)pyrimidin-4-yl)cyclopropanecarboxamide], the half-life in data set [4] (setting [5]) is 3.7 h. For the same compound, half-maximal inhibition in data set [3] (Homo sapiens, HEK293, 2 h) (IC50) required 17 nM. Besides, in the data set on P-gp (human MDR1, ABCB1), the efflux ratio at 5 μM worked out at 10.2, the Papp A→B at 5 μM was found to be 8.7 ×10⁻⁶ cm/s and the Papp B→A at 5 μM was 64.9 ×10⁻⁶ cm/s. The IC50 on MNK1 is 35 nM. Besides, at MNK2, the IC50 worked out at 3 nM.
Turning to `Cc1cc(Nc2cc(NC(=O)C3CC3)ncn2)c(=O)n2c1C(=O)NC2(C)c1cccc(Cl)c1` (stereo not drawn) [Compound 4ET-03-035], the IC50 was 8.7 nM in data set [3] (Homo sapiens, HEK293, 2 h); 128 nM at MNK1; 4.3 nM on MNK2.
Regarding `CCC1=CC2(CCC1)NC(=O)c1c(C)cc(Nc3cc(NC(=O)C4CC4)ncn3)c(=O)n12` (stereo not drawn) [Compound 4ET-03-039, N-(6-((3-Ethyl-8′-methyl-1′,5′-dioxo-1′,5′-dihydro-2′H-spiro[cyclohexane-1,3′-imidazo[1,5-a]pyridin]-2-en-6′-yl)amino)pyrimidin-4-yl)cyclopropanecarboxamide], the concentration for half-maximal inhibition (IC50) is 2.6 nM in data set [3] (Homo sapiens, HEK293, 2 h); 31.6 nM at MNK1; 1.62 nM on MNK2.
The corresponding values for `Cc1cc(Nc2cc(NCCN3CCOCC3)ncn2)c(=O)n2c1C(=O)NC21CCCC1` [Compound 4ET-03-006, 8′-Methyl-6′-((6-((2-morpholinoethyl)amino)pyrimidin-4-yl)amino)-2′H-spiro[cyclopentane-1,3′-imidazo[1,5-a]pyridine]-1′,5′-dione] are 53 nM, 64.6 nM and 5.9 nM.
